# Measurements published in ChEMBL document CHEMBL4346657, “Anticancer activity, dual prooxidant/antioxidant effect and apoptosis induction profile of new bichalcophene-5-carboxamidines” (Eur J Med Chem, 2019).
# Calls of active or inactive are those of the source. The rule behind the calls is not given here.
# Tests used:
# UACC-62 = assay: Antiproliferative activity against human UACC62 cells assessed as growth inhibition after 48 hrs by sulforhodamine B assay; format: functional; details: UACC-62, 48 h
# NCI-H322M = assay: Antiproliferative activity against human NCI-H322M cells assessed as growth inhibition after 48 hrs by sulforhodamine B assay; format: functional
# NCI/ADR-RES = assay: Antiproliferative activity against human NCI-ADR-RES cells assessed as growth inhibition after 48 hrs by sulforhodamine B assay; format: functional
# Erythrocyte [1] = assay: Haemolytic activity in human erythrocytes assessed as induction of hemolysis at 0.625 mM after 30 mins relative to H202; format: cell-based; details: erythrocyte, 0.5 h, 625 µM
# WI-38 = assay: Cytotoxicity activity against human WI38 cells assessed as reduction in cell viability measured after 48 hrs by MTT assay; format: cell-based; details: WI-38, 48 h
# A498 = assay: Antiproliferative activity against human A498 cells assessed as growth inhibition after 48 hrs by sulforhodamine B assay; format: functional; details: A498, 48 h
# SW-620 = assay: Antiproliferative activity against human SW620 cells assessed as growth inhibition after 48 hrs by sulforhodamine B assay; format: functional; details: SW-620, 48 h
# NCI-H522 = assay: Antiproliferative activity against human NCI-H522 cells assessed as growth inhibition after 48 hrs by sulforhodamine B assay; format: functional; details: NCI-H522, 48 h
# NCI-H460 = assay: Antiproliferative activity against human NCI-H460 cells assessed as growth inhibition after 48 hrs by sulforhodamine B assay; format: functional; details: NCI-H460, 48 h
# OVCAR-3 = assay: Antiproliferative activity against human OVCAR3 cells assessed as growth inhibition after 48 hrs by sulforhodamine B assay; format: functional; details: OVCAR-3, 48 h
# COLO 205 = assay: Antiproliferative activity against human COLO205 cells assessed as growth inhibition after 48 hrs by sulforhodamine B assay; format: functional; details: COLO 205, 48 h
# [2] = Antioxidant activity assessed as hydroxyl radical scavenging activity after 1 hr by salicylic acid-based Fenton reaction assay; format: functional
# MDA-MB-231 = assay: Antiproliferative activity against human MDA-MB-231/ATCC cells assessed as growth inhibition after 48 hrs by sulforhodamine B assay; format: functional; details: MDA-MB-231, 48 h
# EKVX = assay: Antiproliferative activity against human EKVX cells assessed as growth inhibition after 48 hrs by sulforhodamine B assay; format: functional
# IGROV-1 = assay: Antiproliferative activity against human IGROV1 cells assessed as growth inhibition after 48 hrs by sulforhodamine B assay; format: functional; details: IGROV-1, 48 h
# KM12 = assay: Antiproliferative activity against human KM12 cells assessed as growth inhibition after 48 hrs by sulforhodamine B assay; format: functional; details: KM12, 48 h
# T47D = assay: Antiproliferative activity against human T47D cells assessed as growth inhibition after 48 hrs by sulforhodamine B assay; format: functional
# DU-145 = assay: Antiproliferative activity against human DU145 cells assessed as growth inhibition after 48 hrs by sulforhodamine B assay; format: functional; details: DU-145, 48 h
# SNB-19 = assay: Antiproliferative activity against human SNB19 cells assessed as growth inhibition after 48 hrs by sulforhodamine B assay; format: functional; details: SNB-19, 48 h
# [3] = Antioxidant activity assessed as ABTS radical scavenging activity by spectrophotometric method relative to ascorbic acid; format: functional
# HOP-62 = assay: Antiproliferative activity against human HOP62 cells assessed as growth inhibition after 48 hrs by sulforhodamine B assay; format: functional; details: HOP-62, 48 h
# Malme-3M = assay: Antiproliferative activity against human MALME-3M cells assessed as growth inhibition after 48 hrs by sulforhodamine B assay; format: functional
# [4] = test system: Panel NCI-60 (60 carcinoma cell lines); assay: Antiproliferative activity against human NCI60 cells assessed as growth inhibition after 48 hrs by sulforhodamine B assay; format: functional
# BT-549 = assay: Antiproliferative activity against human BT549 cells assessed as growth inhibition after 48 hrs by sulforhodamine B assay; format: functional; details: BT-549, 48 h
# K562 = assay: Antiproliferative activity against human K562 cells assessed as growth inhibition after 48 hrs by sulforhodamine B assay; format: functional, cell-based; details: K562, 48 h, read-out: IC50
# [5] = Antioxidant activity assessed as DPPH radical scavenging activity incubated in dark for 30 mins by spectrophotometric method relative to ascorbic acid; format: functional
# HCT-116 [6] = assay: […] in CDK1 mRNA expression in human HCT116 cells at 100 nM after 6 hrs hrs by SYBR green dye-based qRT-PCR analysis relative to control; format: functional
# HCT-116 [7] = assay: Induction of apoptosis in human HCT116 cells assessed as increase in caspase 3 mRNA expression at 100 nM after 6 hrs hrs by SYBR green dye-based qRT-PCR analysis relative to control; format: functional
# MDA-MB-435 = assay: Antiproliferative activity against human MDA-MB-435 cells assessed as growth inhibition after 48 hrs by sulforhodamine B assay; format: functional; details: MDA-MB-435, 48 h
# [8] = Haemolytic activity in human erythrocytes assessed as induction of hemolysis at 5 mM after 30 mins relative to H202; format: cell-based, Erythrocyte; details: read-out: Activity
# [9] = Selectivity index, ratio of IC50 for human WI38 cells to GI50 for human NCI60 cells
# UACC-257 = assay: Antiproliferative activity against human UACC257 cells assessed as growth inhibition after 48 hrs by sulforhodamine B assay; format: functional; details: UACC-257, 48 h
# HOP-92 = assay: Antiproliferative activity against human HOP92 cells assessed as growth inhibition after 48 hrs by sulforhodamine B assay; format: functional; details: HOP-92, 48 h
# SR = assay: Antiproliferative activity against human SR cells assessed as growth inhibition after 48 hrs by sulforhodamine B assay; format: functional
# LOX IMVI = assay: Antiproliferative activity against human LOXIMVI cells assessed as growth inhibition after 48 hrs by sulforhodamine B assay; format: functional
# [10] = (§1) Haemolytic activity in human erythrocytes assessed as induction of hemolysis at 2.5 mM after 30 mins relative to H202; format: cell-based, Erythrocyte; details: erythrocytes, read-out: Activity
# HCC 2998 = assay: Antiproliferative activity against human HCC2998 cells assessed as growth inhibition after 48 hrs by sulforhodamine B assay; format: functional; details: HCC 2998, 48 h
# Erythrocyte [11] = assay: as §1; format: cell-based; details: erythrocyte, 0.5 h, 2500 µM
SMILES,GI50 (UACC-62),GI50 (NCI-H322M),GI50 (NCI/ADR-RES),Activity (Erythrocyte [1]),IC50 (WI-38),GI50 (A498),GI50 (SW-620),GI50 (NCI-H522),GI50 (NCI-H460),GI50 (OVCAR-3),GI50 (COLO 205),Activity [2],GI50 (MDA-MB-231),GI50 (EKVX),GI50 (IGROV-1),GI50 (KM12),GI50 (DU-145),GI50 (SNB-19),fold change (FC) [3],GI50 (HOP-62),other results
COc1cc(-c2ccc(-c3ccc(C(=N)N)s3)s2)cc(OC)c1OC,1700 nM,2380 nM,3440 nM,Non-Toxic,65700 nM,2250 nM,1910 nM,1940 nM,1990 nM,2220 nM,2130 nM,Active,1880 nM,1920 nM,1980 nM,1730 nM,2320 nM,2160 nM,0.8,1970 nM,"GI50 (T47D): 1700 nM; GI50 (Malme-3M): 1740 nM; GI50 [4]: 1910 nM; LC50 [4]: 20900 nM; TGI [4]: 4160 nM; GI50 (BT-549): 1770 nM; IC50 (K562): 1110 nM; fold change (FC) [5]: 0.7; fold change (FC) (HCT-116 [6]): 0.81; fold change (FC) (HCT-116 [7]): 2.67; GI50 (MDA-MB-435): 1640 nM; hemolysis at 0.5 h, 5000 µM [8]: 38.7%; Selectivity Index [9]: 34.4; GI50 (UACC-257): 2220 nM; GI50 (HOP-92): 1140 nM; GI50 (SR): 1830 nM; GI50 (LOX IMVI): 1610 nM; hemolysis at 0.5 h, 2500 µM [10]: 11.3%; GI50 (HCC 2998): 1760 nM"
COc1ccc2cc(-c3ccc(-c4ccc(C(=N)N)s4)s3)ccc2c1,2010 nM,2020 nM,2290 nM,Non-Toxic,80500 nM,14300 nM,1910 nM,1920 nM,1940 nM,2420 nM,2040 nM,Active,2460 nM,2140 nM,2270 nM,2060 nM,1700 nM,2130 nM,0.6,1780 nM,"GI50 (T47D): 1790 nM; GI50 (Malme-3M): 3320 nM; GI50 [4]: 3090 nM; LC50 [4]: 38000 nM; TGI [4]: 7940 nM; GI50 (BT-549): 17600 nM; IC50 (K562): 1180 nM; fold change (FC) [5]: 0.5; fold change (FC) (HCT-116 [6]): 0.93; fold change (FC) (HCT-116 [7]): 2.44; GI50 (MDA-MB-435): 2010 nM; hemolysis at 0.5 h, 5000 µM [8]: 11.3%; Selectivity Index [9]: 26; GI50 (UACC-257): 19600 nM; GI50 (SR): 850 nM; GI50 (LOX IMVI): 1950 nM; Activity (Erythrocyte [11]): Non-Toxic; GI50 (HCC 2998): 3350 nM"
N=C(N)c1ccc(-c2ccc(-c3ccc(F)cc3)o2)o1,1740 nM,1600 nM,1680 nM,Non-Toxic,10600 nM,1900 nM,940 nM,1360 nM,1760 nM,1840 nM,1600 nM,Active,1570 nM,1350 nM,1580 nM,1440 nM,1800 nM,1730 nM,0.1,1600 nM,"GI50 (Malme-3M): 1630 nM; GI50 [4]: 1470 nM; LC50 [4]: 9550 nM; TGI [4]: 3460 nM; GI50 (BT-549): 2270 nM; IC50 (K562): 490 nM; fold change (FC) [5]: 0.1; fold change (FC) (HCT-116 [6]): 1.07; fold change (FC) (HCT-116 [7]): 3.88; GI50 (MDA-MB-435): 350 nM; hemolysis at 0.5 h, 5000 µM [8]: 66.3%; Selectivity Index [9]: 7.2; GI50 (UACC-257): 1980 nM; GI50 (HOP-92): 1210 nM; GI50 (LOX IMVI): 1550 nM; hemolysis at 0.5 h, 2500 µM [10]: 17.6%; GI50 (HCC 2998): 1370 nM"
